Measurements reported in PMC6164518 (Marine Drugs, 2018).

Experiments:
Electric eel AChE = target: T1, Electric eel AChE (Electrophorus electricus, UniProt O42275); assay: biochemical; details: AChE from electric eel; mean ± SD from three separate experiments; read-out: IC50 EeAChE
T1 construct: purchased Sigma-Aldrich (Steinheim, Germany)
Protocol: (§1) The AChE and BChE inhibitory activities of compounds were determined by using a slightly modified Ellman’s method. Electric eel AChE, equine serum BChE, 5,5′-dithiobis(2-nitrobenzoic acid) (DTNB), phosphate buffer solution (PBS, pH 8.0), acetylthiocholine (ATC) iodide, and butyrylthiocholine (BUC) iodide were purchased from Sigma-Aldrich (Steinheim, Germany). […] Enzyme solutions were prepared at 2.0 U/mL in 2-mL aliquots. The assay medium consisted of 10 μL of enzyme, 40 μL of PBS, 20 μL of 0.01 M DTNB, and 10 μL of tested compound. Assayed solutions of tested compounds were pre-incubated with corresponding ChE for 5 min. The reaction was initiated by the addition of 20 μL of 0.01 M substrate (ATC or BUC). The activity was determined by measuring the increase in absorbance at 410 nm at 37 °C in 2-min intervals using Tecan Spark multimode microplate reader (Mannedorf, Switzerland). The percentage of inhibition (I) was calculated from the measured data as follows: I = (Ac − Ai)/Ac × 100%, where Ai and Ac represent the change in the absorbance in the presence of an inhibitor and without an inhibitor, respectively.

equine serum BChE = target: T2, equine serum BChE (Equus caballus, UniProt P81908); assay: biochemical; details: BChE from equine serum; mean ± SD from three separate experiments; read-out: IC50 eqBChE
T2 construct: purchased Sigma-Aldrich (Steinheim, Germany); host or cells: equine serum
Protocol: as §1

AChE = target: T3, AChE (Electrophorus electricus, UniProt O42275); assay: Kinetic study of AChE inhibition (Lineweaver-Burk, Ellman's method); assay type: biochemical
T3 construct: purchased Sigma-Aldrich (Steinheim, Germany)
Protocol: (§2) Herein, compound 12j was selected as a representative prototype for kinetic assay to obtain information on the mode of action and binding site of this series of analogues. […].
(§3) The equilibrium constant for binding with the free enzyme (Ki) was obtained from the slope against inhibitor concentration. […].
(§4) Kinetic studies of inhibition on AChE and BChE were performed by using Ellman’s method as described above. […]
(§5) (B) Secondary plot of slopes versus 12j concentrations.

BChE = target: T4, BChE (Equus caballus, UniProt P81908); assay: Kinetic study of BChE inhibition (Lineweaver-Burk, Ellman's method); assay type: biochemical
T4 construct: purchased Sigma-Aldrich (Steinheim, Germany); host or cells: equine serum
Protocol: as §2, §3, §4, §5

Aβ1–42 = target: T5, Aβ1–42 (Homo sapiens, UniProt P05067); assay: Inhibition of self-induced Aβ1–42 aggregation (ThT fluorescence); assay type: biochemical; details: Aβ1–42 2.5 µM, compound 10 µM, mean ± SD of three experiments
T5 construct: pre-treated Aβ1–42 (GL Biochem Ltd., Shanghai, China) was dissolved in DMSO; purchased GL Biochem Ltd., Shanghai, China
Protocol: In order to investigate the inhibition of compounds on Aβ1–42 self-aggregation, a ThT-based fluorometric assay was performed. 1,1,1,3,3,3-hexafluoro-2-propanol (HFIP) pre-treated Aβ1–42 (GL Biochem Ltd., Shanghai, China) was dissolved in DMSO to make a 200 µM stock solution. The stock solution was centrifuged at the speed of 13,500 rpm for 10 min. The above supernatant was used for experiments. The tested compounds were dissolved in DMSO at concentrations of 0.8 mM. A screening assay for the tested compounds to inhibit A aggregation was performed by measuring ThT fluorescence emission. Compounds (2 µL) and 2 µL of 200 µM Aβ1–42 were added into 76 µL of phosphate-buffered saline (PBS at pH 7.4) in a 96-well plate. After incubation for 24 h at room temperature, 80 µL of 5 µM of ThT solution (in 50 mM of glycine-NaOH at pH 8.5) was added to the reaction solution. Fluorescence emission was measured at 490 nm with an excitation wavelength of 450 nm on a Tecan Spark multimode microplate reader. […] The fluorescence intensities were compared, and the % inhibition was calculated by the following equation: 100 − [(Fi − Fb)/(Fo − Fb) × 100], where Fi, Fo and Fb are the fluorescence intensities obtained for Aβ aggregation in the presence of inhibitors Aβ1–42 and ThT; in the presence of Aβ1–42 and THT but no inhibitors; and the blanks containing ThT only.

Aβ1–42 and AChE = target: T6, Aβ1–42 and AChE (Electrophorus electricus, UniProt O42275); assay: Inhibition of AChE-induced Aβ1–42 aggregation (ThT fluorescence); assay type: biochemical; details: Aβ1–42 2.5 µM, AChE 0.2 U/mL, compound 8 µM; mean ± SD of three experiments
T6 construct: HFIP pre-treated Aβ1–42 (GL Biochem Ltd., shanghai, China) was dissolved in DMSO; purchased GL Biochem Ltd. (Aβ1–42)
Protocol: The stock solution was centrifuged at the speed of 13,500 rpm for 10 min. The above supernatant was used for experiments. […] Fluorescence emission was measured at 490 nm with an excitation wavelength of 450 nm on a Tecan Spark multimode microplate reader.

in vitro = details: human
Protocol: Thus, to verify the hepatotoxicity of 1 and 12j, a 3-(4,5-dimethylthiazol-2-yl)-2,5-diphenyltetrazolium bromide (MTT) assay on the human hepatoma cell line (HepG2) was carried out.
The cytotoxicity of selected compounds was evaluated on HepG2 cells. Cells were inoculated into 96-well plates. After incubation for 24 h, the cells were treated with different concentrations of tested compounds for 24 h, and then were incubated with 10 μL of 3-(4,5-dimethylthiazol-2-yl)-2,5-diphenyltetrazolium bromide (MTT) at 37 °C for 2 h. The formazan dye product was measured by the absorbance at 490 nm on a Tecan Spark multimode microplate reader.

[1] = estimated from secondary plot of slopes versus inhibitor concentration

T2 sequence (P81908 whole entry): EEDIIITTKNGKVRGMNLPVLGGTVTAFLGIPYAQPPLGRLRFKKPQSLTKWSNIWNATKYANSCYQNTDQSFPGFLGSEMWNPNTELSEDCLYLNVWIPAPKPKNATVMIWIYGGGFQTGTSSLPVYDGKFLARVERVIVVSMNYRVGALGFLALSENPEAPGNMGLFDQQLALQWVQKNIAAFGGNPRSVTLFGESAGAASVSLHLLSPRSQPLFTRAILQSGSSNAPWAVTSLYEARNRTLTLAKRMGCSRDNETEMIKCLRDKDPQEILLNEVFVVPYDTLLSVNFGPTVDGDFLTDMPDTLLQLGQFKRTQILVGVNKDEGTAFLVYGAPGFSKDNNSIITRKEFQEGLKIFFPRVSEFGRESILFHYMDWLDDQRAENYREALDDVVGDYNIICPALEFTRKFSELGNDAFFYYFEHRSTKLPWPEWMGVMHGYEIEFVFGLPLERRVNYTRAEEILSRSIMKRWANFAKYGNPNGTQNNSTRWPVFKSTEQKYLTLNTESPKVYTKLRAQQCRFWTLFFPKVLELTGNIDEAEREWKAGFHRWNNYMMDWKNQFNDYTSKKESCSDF
T5 sequence (P05067 672-713 limits assumed): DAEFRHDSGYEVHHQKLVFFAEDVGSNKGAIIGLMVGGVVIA
T3 sequence (O42275 24-633): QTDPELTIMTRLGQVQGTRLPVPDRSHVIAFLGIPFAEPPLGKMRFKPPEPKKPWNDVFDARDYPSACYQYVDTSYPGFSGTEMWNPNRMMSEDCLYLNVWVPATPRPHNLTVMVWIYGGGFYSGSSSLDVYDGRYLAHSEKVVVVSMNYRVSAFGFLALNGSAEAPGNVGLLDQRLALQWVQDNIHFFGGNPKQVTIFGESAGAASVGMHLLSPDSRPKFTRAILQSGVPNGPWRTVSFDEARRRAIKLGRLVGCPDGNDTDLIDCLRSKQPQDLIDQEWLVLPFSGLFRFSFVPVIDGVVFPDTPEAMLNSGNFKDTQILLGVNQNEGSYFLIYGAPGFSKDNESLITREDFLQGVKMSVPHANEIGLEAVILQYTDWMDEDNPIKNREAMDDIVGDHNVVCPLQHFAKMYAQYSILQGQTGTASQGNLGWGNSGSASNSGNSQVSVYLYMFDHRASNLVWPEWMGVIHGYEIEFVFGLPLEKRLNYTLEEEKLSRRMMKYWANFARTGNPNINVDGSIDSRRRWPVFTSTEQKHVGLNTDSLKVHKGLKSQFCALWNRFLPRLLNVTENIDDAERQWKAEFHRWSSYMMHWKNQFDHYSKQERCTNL
T1 sequence (O42275 24-633): as above
T4 sequence (P81908 whole entry): as the sequence (P81908 whole entry) above
T6 sequence (O42275 24-633): as the sequence (O42275 24-633) above

Row | Structure (SMILES) | IC50 (Electric eel AChE) | IC50 (equine serum BChE) | also measured
1 | COc1c(Br)cc(CC(=O)NCCNc2c3c(nc4ccccc24)CCCC3)cc1Br [Compound 10a, 2-(3,5-Dibromo-4-methoxyphenyl)-N-(2-((1,2,3,4-tetrahydroacridin-9-yl)amino)ethyl)acetamide] | 880 ± 74 nM | 230 ± 10 nM | –
2 | COc1c(Br)cc(CC(=O)NCCCNc2c3c(nc4ccccc24)CCCC3)cc1Br [Compound 10b, 2-(3,5-Dibromo-4-methoxyphenyl)-N-(3-((1,2,3,4-tetrahydroacridin-9-yl)amino)propyl)acetamide] | 771 ± 27 nM | 233 ± 13 nM | –
3 | COc1c(Br)cc(CC(=O)NCCCCNc2c3c(nc4ccccc24)CCCC3)cc1Br [Compound 10c, 2-(3,5-Dibromo-4-methoxyphenyl)-N-(4-((1,2,3,4-tetrahydroacridin-9-yl)amino)butyl)acetamide] | 1050 ± 161 nM | 195 ± 11 nM | –
4 | COc1c(Br)cc(CC(=O)NCCCCCNc2c3c(nc4ccccc24)CCCC3)cc1Br [Compound 10d, 2-(3,5-Dibromo-4-methoxyphenyl)-N-(5-((1,2,3,4-tetrahydroacridin-9-yl)amino)pentyl)acetamide] | 764 ± 16 nM | 100 ± 14 nM | –
5 | COc1c(Br)cc(CC(=O)NCCCCCCNc2c3c(nc4ccccc24)CCCC3)cc1Br [Compound 10e, 2-(3,5-Dibromo-4-methoxyphenyl)-N-(6-((1,2,3,4-tetrahydroacridin-9-yl)amino)hexyl)acetamide] | 686 ± 45 nM | 54 ± 6 nM | –
6 | COc1c(Br)cc(CC(=O)NCCCCCCCNc2c3c(nc4ccccc24)CCCC3)cc1Br [Compound 10f, 2-(3,5-Dibromo-4-methoxyphenyl)-N-(7-((1,2,3,4-tetrahydroacridin-9-yl)amino)heptyl)acetamide] | 314 ± 10 nM | 53 ± 7 nM | –
7 | COc1c(Br)cc(CC(=O)NCCCCCCCCNc2c3c(nc4ccccc24)CCCC3)cc1Br [Compound 10g, 2-(3,5-Dibromo-4-methoxyphenyl)-N-(8-((1,2,3,4-tetrahydroacridin-9-yl)amino)octyl)acetamide] | 427 ± 16 nM | 325 ± 4 nM | –
8 | COc1c(Br)cc(CC(=O)NCCCCCCCCCCNc2c3c(nc4ccccc24)CCCC3)cc1Br [Compound 10h, 2-(3,5-Dibromo-4-methoxyphenyl)-N-(10-((1,2,3,4-tetrahydroacridin-9-yl)amino)decyl)acetamide] | 638 ± 26 nM | 516 ± 37 nM | –
9 | COc1ccc(CC(=O)NCCCCCCCNc2c3c(nc4ccccc24)CCCC3)c(Br)c1 [Compound 12a, 2-(2-Bromo-4-methoxyphenyl)-N-(7-((1,2,3,4-tetrahydroacridin-9-yl)amino)heptyl)acetamide] | 324 ± 33 nM | 140 ± 4 nM | –
10 | COc1ccc(CC(=O)NCCCCCCCNc2c3c(nc4ccccc24)CCCC3)cc1 [Compound 12b, 2-(4-Methoxyphenyl)-N-(7-((1,2,3,4-tetrahydroacridin-9-yl)amino)heptyl)acetamide] | 750 ± 54 nM | 694 ± 3 nM | –
11 | COc1ccc(CC(=O)NCCCCCCCNc2c3c(nc4ccccc24)CCCC3)cc1Br [Compound 12c, 2-(3-Bromo-4-methoxyphenyl)-N-(7-((1,2,3,4-tetrahydroacridin-9-yl)amino)heptyl)acetamide] | 607 ± 45 nM | 152 ± 6 nM | –
12 | O=C(Cc1ccccc1Br)NCCCCCCCNc1c2c(nc3ccccc13)CCCC2 [Compound 12d, 2-(2-Bromophenyl)-N-(7-((1,2,3,4-tetrahydroacridin-9-yl)amino)heptyl)acetamide] | 304 ± 4 nM | 91 ± 17 nM | –
13 | O=C(Cc1cccc(Br)c1)NCCCCCCCNc1c2c(nc3ccccc13)CCCC2 [Compound 12e, 2-(3-Bromophenyl)-N-(7-((1,2,3,4-tetrahydroacridin-9-yl)amino)heptyl)acetamide] | 724 ± 3 nM | 149 ± 21 nM | –
14 | O=C(Cc1ccc(Br)cc1)NCCCCCCCNc1c2c(nc3ccccc13)CCCC2 [Compound 12f, 2-(4-Bromophenyl)-N-(7-((1,2,3,4-tetrahydroacridin-9-yl)amino)heptyl)acetamide] | 597 ± 28 nM | 214 ± 4 nM | –
15 | O=C(Cc1cc(Br)ccc1Br)NCCCCCCCNc1c2c(nc3ccccc13)CCCC2 [Compound 12g, 2-(2,5-Dibromophenyl)-N-(7-((1,2,3,4-tetrahydroacridin-9-yl)amino)heptyl)acetamide] | 696 ± 52 nM | 62 ± 6 nM | –
16 | O=C(Cc1cc(Br)cc(Br)c1)NCCCCCCCNc1c2c(nc3ccccc13)CCCC2 [Compound 12h, 2-(3,5-Dibromophenyl)-N-(7-((1,2,3,4-tetrahydroacridin-9-yl)amino)heptyl)acetamide] | 729 ± 21 nM | 204 ± 11 nM | –
17 | O=C(Cc1ccc(F)c(Br)c1)NCCCCCCCNc1c2c(nc3ccccc13)CCCC2 [Compound 12i, 2-(3-Bromo-4-fluorophenyl)-N-(7-((1,2,3,4-tetrahydroacridin-9-yl)amino)heptyl)acetamide] | 748 ± 17 nM | 49 ± 4 nM | –
18 | O=C(Cc1cc(Br)ccc1F)NCCCCCCCNc1c2c(nc3ccccc13)CCCC2 [Compound 12j, 2-(5-Bromo-2-fluorophenyl)-N-(7-((1,2,3,4-tetrahydroacridin-9-yl)amino)heptyl)acetamide] | 182 ± 6 nM | 64 ± 6 nM | Type of AChE inhibition (AChE; Lineweaver-Burk plots): linear mixed-type; Ki (AChE; [1]): 97.5 nM; Type of BChE inhibition (BChE; Lineweaver-Burk plots): linear mixed-type; Ki (BChE; [1]): 9.91 nM; Inhibition of Aβ Aggregation (%) Self-Induced (Aβ1–42): 32.37 ± 0.62%; Inhibition of Aβ Aggregation (%) AChE-Induced (Aβ1–42 and AChE): 47.73 ± 4.35%; IC50 at 24 h (in vitro): > 80000 nM
19 | O=C(Cc1cc(Cl)ccc1Br)NCCCCCCCNc1c2c(nc3ccccc13)CCCC2 [Compound 12k, 2-(2-Bromo-5-chlorophenyl)-N-(7-((1,2,3,4-tetrahydroacridin-9-yl)amino)heptyl)acetamide] | 383 ± 54 nM | 104 ± 1 nM | –
20 | O=C(Cc1ccccc1)NCCCCCCCNc1c2c(nc3ccccc13)CCCC2 [Compound 12l, 2-Phenyl-N-(7-((1,2,3,4-tetrahydroacridin-9-yl)amino)heptyl)acetamide] | 760 ± 92 nM | 680 ± 54 nM | –
21 | COc1ccc2c3c1O[C@H]1C[C@@H](O)C=C[C@@]31CCN(C)C2 [Galantamine, reference compound] | – | – | Inhibition of Aβ Aggregation (%) Self-Induced (Aβ1–42): 1.25 ± 0.46%; Inhibition of Aβ Aggregation (%) Self-Induced (Aβ1–42; listed as galantamine): no significant inhibition
22 | Nc1c2c(nc3ccccc13)CCCC2 [Tacrine, reference compound] | – | – | IC50 at 24 h (in vitro): 38900 ± 530 nM
